Experimental data reported in patent US6683211B1, “Phenyl-propargylether derivatives” (priority 2000, dated 2004).

What was measured:
Assay type in all cases: in vivo
Plasmopara viticola [1] = assay: D-1a) residual-protective action against Plasmopara viticola on vines; conditions: Plasmopara viticola, 144 h; 200 ppm; test D-1a) residual-protective; vine seedlings; evaluated after 6 days; read-out: inhibit fungal infestations
Description: (§1) D-1: Action Against Plasmopara viticola on Vines
(§2) a) Residual-protective Action
Vine seedlings are sprayed at the 4- to 5-leaf stage with a spray mixture (0.02% active ingredient) prepared from a wettable powder formulation of the test compound. After 24 hours, the treated plants are infected with a sporangia suspension of the fungus. Fungus infestation is evaluated after incubation for 6 days at 95-100% relative humidity and +20° C.

Plasmopara viticola [2] = assay: D-1b) residual-curative action against Plasmopara viticola on vines; conditions: Plasmopara viticola, 144 h; 200 ppm; test D-1b) residual-curative; vine seedlings; evaluated 6 days after infection; read-out: inhibit fungal infestations
Description: as §1
b) Residual-curative Action
Vine seedlings are infected at the 4- to 5-leaf stage with a sporangia suspension of the fungus. After incubation for 24 hours in a humidity chamber at 95-100% relative humidity and +20° C., the infected plants are dried and sprayed with a spray mixture (0.02% active ingredient) prepared from a wettable powder formulation of the test compound. After the spray coating has dried, the treated plants are placed in the humidity chamber again.
Fungus infestation is evaluated 6 days after infection.

Phytophthora [3] = assay: D-2a) residual-protective action against Phytophthora on tomato plants; conditions: Phytophthora, 120 h; 200 ppm; test D-2a) residual-protective, evaluated after 5 days, read-out: inhibit fungal infestations
Description: (§3) D-2: Action Against Phytophthora on Tomato Plants
as §2
After a cultivation period of 3 weeks, tomato plants are sprayed with a spray mixture (0.02% active ingredient) prepared from a wettable powder formulation of the test compound. After 48 hours, the treated plants are infected with a sporangia suspension of the fungus. Fungus infestation is evaluated after incubation of the infected plants for 5 days at 90-100% relative humidity and +20° C.

Phytophthora [4] = assay: D-2b) systemic action against Phytophthora on tomato plants; conditions: Phytophthora, 96 h; 200 ppm; test D-2b) systemic (soil watering), evaluated after 4 days, read-out: inhibit fungal infestations
Description: as §3
After a cultivation period of 3 weeks, tomato plants are watered with a spray mixture (0.02% active ingredient based on the volume of the soil) prepared from a wettable powder formulation of the test compound. […] After 96 hours, the treated plants are infected with a sporangia suspension of the fungus. Fungus infestation is evaluated after incubation of the infected plants for 4 days at 90-100% relative humidity and +20° C. […] Compounds E1.003, E1.004, E1.009, E1.011, E1.012, E1.014, E1.018, E1.019, E1.020, E1.021, E1.022, E1.023, E1.025, E1.031, E1.032, E1.033, E1.038, E1.040, E1.044, E1.045, E1.049, E1.050, E1.053, E1.055, E1.057, E1.064, E1.085, E1.089, E1.090, E1.091, E1.102, E1.08, E1.110, E1.112, E1.121, E1.125, E1.129, E1.139 and E1.141 at 200 ppm inhibit fungal infestations in both tests D-2a) and D-2b) by 80-100%.

Phytophthora [5] = assay: D-3a) residual-protective action against Phytophthora on potato plants; conditions: Phytophthora, 96 h; 200 ppm; test D-3a) residual-protective; potato plants (Bintje); evaluated after 4 days; read-out: inhibit fungal infestations
Description: (§4) D-3: Action Against Phytophthora on Potato Plants
as §2
2-3 week old potato plants (Bintje variety) are sprayed with a spray mixture (0.02% active ingredient) prepared from a wettable powder formulation of the test compound. After 48 hours, the treated plants are infected with a sporangia suspension of the fungus. Fungus infestation is evaluated after incubation of the infected plants for 4 days at 90-100% relative humidity and +20° C.

Phytophthora [6] = assay: D-3b) systemic action against Phytophthora on potato plants; conditions: Phytophthora, 96 h; 200 ppm; test D-3b) systemic (soil watering); potato plants (Bintje); evaluated after 4 days; read-out: inhibit fungal infestations
Description: as §4
2-3 week old potato plants (Bintje variety) are watered with a spray mixture (0.02% active ingredient based on the volume of the soil) prepared from a wettable powder formulation of the test compound. […] After 48 hours, the treated plants are infected with a sporangia suspension of the fungus. Fungus infestation is evaluated after incubation of the infected plants for 4 days at 90-100% relative humidity and +20° C. Fungal infestation is effectively controlled with compounds of Tables 1 to 35. Compounds E1.003, E1.004, E1.009, E1.011, E1.012, E1.019, E1.020, E1.021, E1.022, E1.025, E1.031, E1.032, E1.033, E1.038, E1.045, E1.049, E1.050, E1.053, E1.085, E1.089, E1.090, E1.091, E1.102, E1.110, E1.112, E1.121, E1.125, E1.129 at 200 ppm inhibit fungal infestations in both tests D-3a) and D-3b) by 80-100%.

Measured: inhibition at 200 ppm

C#CCOc1ccc(CCNC(=O)C(OCC#C)c2ccc(F)c(Cl)c2)cc1OC (stereo not drawn) [Compound E1.090, 2-(3-chloro-4-fluoro-phenyl)-N-[2-(3-methoxy-4-prop-2-ynyloxy-phenyl)-ethyl]-2-prop-2-ynyloxy-acetamide]
80 to 100%: all assays above

C#CCOc1ccc(CCNC(=O)C(OCC#CC)c2ccc(Br)cc2)cc1OC (stereo not drawn) [Compound E1.025, 2-(4-bromo-phenyl)-2-but-2-ynyloxy-N-[2-(3-methoxy-4-prop-2-ynyloxy-phenyl)-ethyl]-acetamide]
80 to 100%: all assays above

C#CCOc1ccc(CCNC(=O)C(OCC#CC)c2ccc(Cl)cc2)cc1OC (stereo not drawn) [Compound E1.014, 2-but-2-ynyloxy-2-(4-chloro-phenyl)-N-[2-(3-methoxy-4-prop-2-ynyloxy-phenyl)-ethyl]-acetamide]
80 to 100%: Plasmopara viticola [1] | Plasmopara viticola [2] | Phytophthora [3] | Phytophthora [4]

C#CCOc1ccc(CCNC(=O)C(OCC#C)c2ccc(Cl)c(Cl)c2)cc1OC (stereo not drawn) [Compound E1.102, 2-(3,4-dichloro-phenyl)-N-[2-(3-methoxy-4-prop-2-ynyloxy-phenyl)-ethyl]-2-prop-2-ynyloxy-acetamide]
80 to 100%: all assays above

C#CCOc1ccc(CCNC(=O)C(OCC#C)c2ccc(Cl)c(F)c2)cc1OC (stereo not drawn) [Compound E1.091, 2-(3-fluoro-4-chloro-phenyl)-N-[2-(3-methoxy-4-prop-2-ynyloxy-phenyl)-ethyl]-2-prop-2-ynyloxy-acetamide]
80 to 100%: all assays above

C#CCOc1ccc(CCNC(=O)C(OC)c2ccc(Cl)cc2)cc1OC (stereo not drawn) [Compound E1.003, 2-(4-Chloro-phenyl)-2-methoxy-N-[2-(3-methoxy-4-prop-2-ynyloxy-phenyl)-ethyl]-acetamide]
80 to 100%: all assays above

C#CCOc1ccc(CCNC(=O)C(OCC#C)c2ccc(F)c(F)c2)cc1OC (stereo not drawn) [Compound E1.085, 2-(3,4-difluoro-phenyl)-N-[2-(3-methoxy-4-prop-2-ynyloxy-phenyl)-ethyl]-2-prop-2-ynyloxy-acetamide]
80 to 100%: all assays above

C#CCOc1ccc(CCNC(=O)C(OCC)c2ccc(Br)cc2)cc1OC (stereo not drawn) [Compound E1.020, 2-(4-bromo-phenyl)-2-ethoxy-N-[2-(3-methoxy-4-prop-2-ynyloxy-phenyl)-ethyl]-acetamide]
80 to 100%: all assays above

C#CCOc1ccc(CCNC(=O)C(OCC#C)c2ccc(C(F)(F)F)cc2)cc1OC (stereo not drawn) [Compound E1.050, N-[2-(3-methoxy-4-prop-2-ynyloxy-phenyl)-ethyl]-2-prop-2-ynyloxy-2-(4-trifluoromethyl-phenyl)-acetamide]
80 to 100%: all assays above

C#CCOc1ccc(CCNC(=O)C(OCC#C)c2ccc(CC)cc2)cc1OC (stereo not drawn) [Compound E1.053, 2-(4-ethyl-phenyl)-N-[2-(3-methoxy-4-prop-2-ynyloxy-phenyl)-ethyl]-2-prop-2-ynyloxy-acetamide]
80 to 100%: all assays above

C#CCOc1ccc(CCNC(=O)C(OCC#C)c2ccc(F)cc2)cc1OC (stereo not drawn) [Compound E1.033, 2-(4-fluoro-phenyl)-N-[2-(3-methoxy-4-prop-2-ynyloxy-phenyl)-ethyl]-2-prop-2-ynyloxy-acetamide]
80 to 100%: all assays above

C#CCOC(C(=O)NCCc1ccc(OCC#CCC)c(OC)c1)c1ccc(Cl)cc1 (stereo not drawn) [Compound E1.012, 2-(4-chloro-phenyl)-N-[2-(3-methoxy-4-pent-2-ynyloxy-phenyl)-ethyl]-2-prop-2-ynyloxy-acetamide]
80 to 100%: all assays above

C#CCOc1ccc(CCNC(=O)C(OCC=C)c2ccc(Br)cc2)cc1OC (stereo not drawn) [Compound E1.021, 2-allyloxy-2-(4-bromo-phenyl)-N-[2-(3-methoxy-4-prop-2-ynyloxy-phenyl)-ethyl]-acetamide]
80 to 100%: all assays above

C#CCOc1ccc(CCNC(=O)C(OCC=C)c2ccc(Cl)cc2)cc1OC (stereo not drawn) [Compound E1.009, 2-allyloxy-2-(4-chloro-phenyl)-N-[2-(3-methoxy-4-prop-2-ynyloxy-phenyl)-ethyl]-acetamide]
80 to 100%: all assays above

C#CCOC(C(=O)NCCc1ccc(OCC#CCC)c(OC)c1)c1ccc(Br)cc1 (stereo not drawn) [Compound E1.023, 2-(4-bromo-phenyl)-N-[2-(3-methoxy-4-pent-2-ynyloxy-phenyl)-ethyl]2-prop-2-ynyloxy-acetamide]
80 to 100%: Plasmopara viticola [1] | Plasmopara viticola [2] | Phytophthora [3] | Phytophthora [4]

C#CCOc1ccc(CCNC(=O)C(OCOCC)c2ccc(Cl)cc2)cc1OC (stereo not drawn) [Compound E1.018, 2-(4-chloro-phenyl)-2-ethoxymethoxy-N-[2-(3-methoxy-4-prop-2-ynyloxy-phenyl)-ethyl]-acetamide]
80 to 100%: Plasmopara viticola [1] | Plasmopara viticola [2] | Phytophthora [3] | Phytophthora [4]
